According to publication PMC9077236, “Gs protein peptidomimetics as allosteric modulators of the β2-adrenergic receptor” (RSC Advances, 2018):

Columns and labels:
[1] = CuAAC (i,i+4) side-chain stapling of azidolysine with propargylglycine or O-propargylserine; CuSO4·5H2O (1 eq), Na ascorbate (5 eq); from purified linear peptides; settings: the molecule shown is the open-chain precursor, tBuOH/H2O 1:2, 0.5 mM, 25.0 °C
[2] = CuAAC (i,i+4) side-chain stapling of azidolysine with propargylglycine or O-propargylserine; CuSO4·5H2O (1 eq), Na ascorbate (5 eq); from crude linear peptides; settings: the molecule shown is the open-chain precursor, tBuOH/H2O 1:2, 0.5 mM, 25.0 °C
[3] = tested on: β2AR (β2AR-Δ4 construct, C265 bimane-labelled); test: Conformational bimane fluorescence shift assay on purified mBBr-labelled β2AR; assay type: biochemical; settings: increasing concentrations of ISO, saturating at 250 μM and 500 μM
Description: To further investigate their pharmacological profiles, selected peptidomimetics were tested in a bimane fluorescence shift assay (see ESI ^†). […] Stimulation of purified, C265 fluorophore-labelled β2AR with increasing concentrations of ISO results in a concentration-dependent decrease in the fluorescence intensity (FI) and a red-shift of the maximum emission wavelength (λmax) of the bimane-fluorophore probe (Fig. 5A).
Bimane-fluorescence curves in presence of agonist or peptidomimetic alone or in combination were normalised to that of the receptor alone.
Conformational biman e fluorescence assay
Baculovirus es containing the β2AR-Δ4 construct (full-length β 2AR with four mutated
cystein es (C77V, C327S , C378 A and C406A10,11) were generated as pr eviousl y d escribed b y
Rosenbaum et al.12 The modi fied β 2AR wa s ex pre s sed in S f9 insect cel ls using r ecombi na nt
baculovi rus and pu rified b y M1-anti- FLAG im munoaffinit y chr omatograph y. The F LAG -
purified receptor was l abe lled with monobromobimane (mBBr) and purified b y alprenolol
affinit y chr omato graph y as described b y Yao et al. 13 with one minor change; the modified β2AR
was labelled with an excess of 10 µM mBBr (instead of equivalent amounts of β 2AR and
mBBr). […]
ligands and peptide s were subtracted from the samples. Data was analysed b y use of the […]

[4] = target: T1, β2-adrenergic receptor (β2AR) (Homo sapiens, UniProt P07550); test: Membrane-based cAMP accumulation assay (HTRF), ISO-induced cAMP formation; assay type: biochemical
T1 construct: expressed in transfected cells; host or cells: HEK293 cells stably overexpressing β2AR; membrane fractions used
T1 sequence (P07550 whole entry, species assumed): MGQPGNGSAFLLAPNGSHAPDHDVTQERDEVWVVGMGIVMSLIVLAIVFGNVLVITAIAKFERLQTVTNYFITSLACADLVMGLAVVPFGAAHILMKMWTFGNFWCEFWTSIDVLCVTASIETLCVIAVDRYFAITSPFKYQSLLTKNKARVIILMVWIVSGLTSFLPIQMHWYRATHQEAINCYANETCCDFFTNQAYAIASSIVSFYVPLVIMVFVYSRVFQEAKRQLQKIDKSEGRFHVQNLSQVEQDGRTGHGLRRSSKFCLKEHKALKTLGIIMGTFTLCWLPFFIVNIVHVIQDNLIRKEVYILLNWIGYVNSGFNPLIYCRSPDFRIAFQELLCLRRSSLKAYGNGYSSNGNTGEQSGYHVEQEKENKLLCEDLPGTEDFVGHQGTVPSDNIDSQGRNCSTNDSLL
Description: To allow the peptidomimetics to interact with the intracellular G protein binding pocket they were tested in a membrane-based cAMP accumulation assay (see ESI ^†). […] The cAMP levels in absence of peptidomimetics were normalised to the basal (0%) and maximal efficacy (100%) of ISO in presence of vehicle (DMSO).
overexpressing the β2AR8 were prepared and the peptidomimetics tested as previously
peptidomimetics diluted in HBSS buffer supplemented with 20 mM HEPES pH 7.5, 0.1 %
Elmer) at room temperature (RT) for 15 min. Then isoproterenol solutions for the
prepared in ligand buffer (HBSS buffer supplemented with 20 mM HEPES pH 7.5, 0.1 %
added to the wells and incubated for 30 min at room temperature. To detect cAMP formation
the HTRF cAMP d ynamic 2 assa y kit from CisBio (cat no. 2AM4PEC) was used according
to the manufactures protocol. The absolute cAMP levels were determined using a cAMP
standard curve and norm alised to the maximal cAMP response obtained by full isoproterenol
stimulation alone. Significant differen ces b etween IS O alon e and in presence of the p eptides
were calculat ed statisticall y b y use of on e- wa y ANOVA in the GraphPad Prism software.

Structure (SMILES): C#CC[C@H](NC(=O)[C@H](CCCNC(=N)N)NC(=O)[C@H](CCC(N)=O)NC(=O)[C@@H](NC(=O)[C@@H](CCCCN=[N+]=[N-])NC(=O)[C@H](CC(=O)O)NC(=O)[C@H](CCCNC(=N)N)NC(C)=O)[C@@H](C)CC)C(=O)N[C@@H](Cc1cnc[nH]1)C(=O)N[C@@H](CC(C)C)C(=O)N[C@@H](CCCNC(=N)N)C(=O)N[C@@H](CCC(N)=O)C(=O)N[C@@H](Cc1ccc(O)cc1)C(=O)N[C@@H](CCC(=O)O)C(=O)N[C@@H](CC(C)C)C(=O)N[C@@H](CC(C)C)C(=O)O [Ac-R-D-(D-K(N3))-I-Q-R-Pra-H-L-R-Q-Y-E-L-L-OH]
- ring closure, isolated yield ([1]; 21-membered ring, 0.25 h): 56%

Structure (SMILES): C#CCOC[C@H](NC(=O)[C@H](CCCNC(=N)N)NC(=O)[C@H](CCC(N)=O)NC(=O)[C@@H](NC(=O)[C@@H](CCCCN=[N+]=[N-])NC(=O)[C@H](CC(=O)O)NC(=O)[C@H](CCCNC(=N)N)NC(C)=O)[C@@H](C)CC)C(=O)N[C@@H](Cc1cnc[nH]1)C(=O)N[C@@H](CC(C)C)C(=O)N[C@@H](CCCNC(=N)N)C(=O)N[C@@H](CCC(N)=O)C(=O)N[C@@H](Cc1ccc(O)cc1)C(=O)N[C@@H](CCC(=O)O)C(=O)N[C@@H](CC(C)C)C(=O)N[C@@H](CC(C)C)C(=O)O [Ac-R-D-(D-K(N3))-I-Q-R-Ser(O-propargyl)-H-L-R-Q-Y-E-L-L-OH]
- ring closure, isolated yield ([1]; 23-membered ring): 40%

Structure (SMILES): C#CC[C@H](NC(=O)[C@H](CCCC)NC(=O)[C@H](CCCNC(=N)N)NC(=O)[C@H](CCC(N)=O)NC(=O)[C@@H](CCCCN=[N+]=[N-])NC(=O)[C@@H](NC(=O)[C@H](CC(=O)O)NC(=O)[C@H](CCCNC(=N)N)NC(C)=O)[C@@H](C)CC)C(=O)N[C@@H](CC(C)C)C(=O)N[C@@H](CCCNC(=N)N)C(=O)N[C@@H](CCC(N)=O)C(=O)N[C@@H](Cc1ccc(O)cc1)C(=O)N[C@@H](CCC(=O)O)C(=O)N[C@@H](CC(C)C)C(=O)N[C@@H](CC(C)C)C(=O)O [Ac-R-D-I-(D-K(N3))-Q-R-Nle-Pra-L-R-Q-Y-E-L-L-OH]
- ring closure, overall yield ([2]; 21-membered ring): 11%

Structure (SMILES): C#CCOC[C@H](NC(=O)[C@H](CCCC)NC(=O)[C@H](CCCNC(=N)N)NC(=O)[C@H](CCC(N)=O)NC(=O)[C@@H](CCCCN=[N+]=[N-])NC(=O)[C@@H](NC(=O)[C@H](CC(=O)O)NC(=O)[C@H](CCCNC(=N)N)NC(C)=O)[C@@H](C)CC)C(=O)N[C@@H](CC(C)C)C(=O)N[C@@H](CCCNC(=N)N)C(=O)N[C@@H](CCC(N)=O)C(=O)N[C@@H](Cc1ccc(O)cc1)C(=O)N[C@@H](CCC(=O)O)C(=O)N[C@@H](CC(C)C)C(=O)N[C@@H](CC(C)C)C(=O)O [Ac-R-D-I-(D-K(N3))-Q-R-Nle-Ser(O-propargyl)-L-R-Q-Y-E-L-L-OH]
- ring closure, overall yield ([2]; 23-membered ring): 13%

Structure (SMILES): C#CC[C@H](NC(=O)[C@H](CCCNC(=N)N)NC(=O)[C@H](CC(C)C)NC(=O)[C@H](Cc1cnc[nH]1)NC(=O)[C@@H](CCCCN=[N+]=[N-])NC(=O)[C@H](CCCNC(=N)N)NC(=O)[C@H](CCC(N)=O)NC(=O)[C@@H](NC(=O)[C@@H](NC(=O)[C@H](CC(=O)O)NC(=O)[C@H](CCCNC(=N)N)NC(C)=O)[C@@H](C)CC)[C@@H](C)CC)C(=O)N[C@@H](Cc1ccc(O)cc1)C(=O)N[C@@H](CCC(=O)O)C(=O)N[C@@H](CC(C)C)C(=O)N[C@@H](CC(C)C)C(=O)O [Ac-R-D-I-I-Q-R-(D-K(N3))-H-L-R-Pra-Y-E-L-L-OH]
- ring closure, overall yield ([2]; 21-membered ring, 1.0 h): 26%

Structure (SMILES): C#CCOC[C@H](NC(=O)[C@H](CCCNC(=N)N)NC(=O)[C@H](CC(C)C)NC(=O)[C@H](Cc1cnc[nH]1)NC(=O)[C@@H](CCCCN=[N+]=[N-])NC(=O)[C@H](CCCNC(=N)N)NC(=O)[C@H](CCC(N)=O)NC(=O)[C@@H](NC(=O)[C@@H](NC(=O)[C@H](CC(=O)O)NC(=O)[C@H](CCCNC(=N)N)NC(C)=O)[C@@H](C)CC)[C@@H](C)CC)C(=O)N[C@@H](Cc1ccc(O)cc1)C(=O)N[C@@H](CCC(=O)O)C(=O)N[C@@H](CC(C)C)C(=O)N[C@@H](CC(C)C)C(=O)O [Ac-R-D-I-I-Q-R-(D-K(N3))-H-L-R-Ser(O-propargyl)-Y-E-L-L-OH]
- ring closure, overall yield ([2]; 23-membered ring, 3.0 h): 11%

Structure (SMILES): C#CC[C@H](NC(=O)[C@H](CCCNC(=N)N)NC(=O)[C@H](CC(C)C)NC(=O)[C@H](Cc1cnc[nH]1)NC(=O)[C@H](CCCCN=[N+]=[N-])NC(=O)[C@H](CCCNC(=N)N)NC(=O)[C@H](CCC(N)=O)NC(=O)[C@@H](NC(=O)[C@@H](NC(=O)[C@H](CC(=O)O)NC(=O)[C@H](CCCNC(=N)N)NC(C)=O)[C@@H](C)CC)[C@@H](C)CC)C(=O)N[C@@H](Cc1ccc(O)cc1)C(=O)N[C@@H](CCC(=O)O)C(=O)N[C@@H](CC(C)C)C(=O)N[C@@H](CC(C)C)C(=O)O [Ac-R-D-I-I-Q-R-K(N3)-H-L-R-Pra-Y-E-L-L-OH]
- ring closure, overall yield ([2]; 21-membered ring, 3.0 h): 10%

Structure (SMILES): C#CCOC[C@H](NC(=O)[C@H](CCCNC(=N)N)NC(=O)[C@H](CC(C)C)NC(=O)[C@H](Cc1cnc[nH]1)NC(=O)[C@H](CCCCN=[N+]=[N-])NC(=O)[C@H](CCCNC(=N)N)NC(=O)[C@H](CCC(N)=O)NC(=O)[C@@H](NC(=O)[C@@H](NC(=O)[C@H](CC(=O)O)NC(=O)[C@H](CCCNC(=N)N)NC(C)=O)[C@@H](C)CC)[C@@H](C)CC)C(=O)N[C@@H](Cc1ccc(O)cc1)C(=O)N[C@@H](CCC(=O)O)C(=O)N[C@@H](CC(C)C)C(=O)N[C@@H](CC(C)C)C(=O)O [Ac-R-D-I-I-Q-R-K(N3)-H-L-R-Ser(O-propargyl)-Y-E-L-L-OH]
- ring closure, overall yield ([2]; 23-membered ring, 2.0 h): 14%

Structure (SMILES): C#CC[C@H](NC(=O)[C@H](CCCC)NC(=O)[C@H](CCCNC(=N)N)NC(=O)[C@H](CCC(N)=O)NC(=O)[C@H](CCCCN=[N+]=[N-])NC(=O)[C@@H](NC(=O)[C@H](CC(=O)O)NC(=O)[C@H](CCCNC(=N)N)NC(C)=O)[C@@H](C)CC)C(=O)N[C@@H](CC(C)C)C(=O)N[C@@H](CCCNC(=N)N)C(=O)N[C@@H](CCC(N)=O)C(=O)N[C@@H](Cc1ccc(O)cc1)C(=O)N[C@@H](CCC(=O)O)C(=O)N[C@@H](CC(C)C)C(=O)N[C@@H](CC(C)C)C(=O)O [Ac-R-D-I-K(N3)-Q-R-Nle-Pra-L-R-Q-Y-E-L-L-OH]
- ring closure, overall yield ([2]; 21-membered ring): 10%

Structure (SMILES): C#CCOC[C@H](NC(=O)[C@H](CCCC)NC(=O)[C@H](CCCNC(=N)N)NC(=O)[C@H](CCC(N)=O)NC(=O)[C@H](CCCCN=[N+]=[N-])NC(=O)[C@@H](NC(=O)[C@H](CC(=O)O)NC(=O)[C@H](CCCNC(=N)N)NC(C)=O)[C@@H](C)CC)C(=O)N[C@@H](CC(C)C)C(=O)N[C@@H](CCCNC(=N)N)C(=O)N[C@@H](CCC(N)=O)C(=O)N[C@@H](Cc1ccc(O)cc1)C(=O)N[C@@H](CCC(=O)O)C(=O)N[C@@H](CC(C)C)C(=O)N[C@@H](CC(C)C)C(=O)O [Ac-R-D-I-K(N3)-Q-R-Nle-Ser(O-propargyl)-L-R-Q-Y-E-L-L-OH]
- ring closure, overall yield ([2]; 23-membered ring, 1.0 h): 15%

Structure (SMILES): C#CC[C@H](NC(=O)[C@H](CCCNC(=N)N)NC(=O)[C@H](CCC(N)=O)NC(=O)[C@@H](NC(=O)[C@H](CCCCN=[N+]=[N-])NC(=O)[C@H](CC(=O)O)NC(=O)[C@H](CCCNC(=N)N)NC(C)=O)[C@@H](C)CC)C(=O)N[C@@H](Cc1cnc[nH]1)C(=O)N[C@@H](CC(C)C)C(=O)N[C@@H](CCCNC(=N)N)C(=O)N[C@@H](CCC(N)=O)C(=O)N[C@@H](Cc1ccc(O)cc1)C(=O)N[C@@H](CCC(=O)O)C(=O)N[C@@H](CC(C)C)C(=O)N[C@@H](CC(C)C)C(=O)O [Ac-R-D-K(N3)-I-Q-R-Pra-H-L-R-Q-Y-E-L-L-OH]
- ring closure, isolated yield ([1]; 21-membered ring, 0.25 h): 36%

Structure (SMILES): C#CCOC[C@H](NC(=O)[C@H](CCCNC(=N)N)NC(=O)[C@H](CCC(N)=O)NC(=O)[C@@H](NC(=O)[C@H](CCCCN=[N+]=[N-])NC(=O)[C@H](CC(=O)O)NC(=O)[C@H](CCCNC(=N)N)NC(C)=O)[C@@H](C)CC)C(=O)N[C@@H](Cc1cnc[nH]1)C(=O)N[C@@H](CC(C)C)C(=O)N[C@@H](CCCNC(=N)N)C(=O)N[C@@H](CCC(N)=O)C(=O)N[C@@H](Cc1ccc(O)cc1)C(=O)N[C@@H](CCC(=O)O)C(=O)N[C@@H](CC(C)C)C(=O)N[C@@H](CC(C)C)C(=O)O [Ac-R-D-K(N3)-I-Q-R-Ser(O-propargyl)-H-L-R-Q-Y-E-L-L-OH]
- ring closure, isolated yield ([1]; 23-membered ring, 1.0 h): 69%

Structure (SMILES): CC(C)NC[C@H](O)c1ccc(O)c(O)c1 [ISO, (−)-isoproterenol]
- Effect on bimane fluorescence (FI and λmax) / receptor conformation [3]: induces an active receptor conformation in a concentration-dependent manner

Structure (SMILES): CC[C@H](C)[C@H](NC(=O)[C@H](CC(=O)O)NC(=O)[C@H](CCCNC(=N)N)NC(C)=O)C(=O)N[C@H](C(=O)N[C@@H](CCC(N)=O)C(=O)N[C@@H](CCCNC(=N)N)C(=O)N[C@H]1CCCCn2cc(nn2)C[C@@H](C(=O)N[C@@H](Cc2ccc(O)cc2)C(=O)N[C@@H](CCC(=O)O)C(=O)N[C@@H](CC(C)C)C(=O)N[C@@H](CC(C)C)C(=O)O)NC(=O)[C@H](CCCNC(=N)N)NC(=O)[C@H](CC(C)C)NC(=O)[C@H](Cc2c[nH]cn2)NC1=O)[C@@H](C)CC [Peptide 10C]
- Maximum efficacy of ISO ([4]; ISO CRC in presence of 100 μM peptidomimetic, HEK293 membranes overexpressing β2AR, normalised to ISO with vehicle (100%), mean ± SEM, n = 3, * P < 0.05): 61.0 ± 4.1* %
- Basal level (basal cAMP level of the ISO concentration-response curve) ([4]; ISO CRC in presence of 100 μM peptidomimetic, HEK293 membranes overexpressing β2AR, normalised to basal (0%) and maximal efficacy (100%) of ISO with vehicle (DMSO), 15 min preincubation, 30 min RT, mean ± SEM, n = 3): −11.0 ± 4.3%
- Hill slope of the ISO concentration-response curve ([4]; in presence of 100 μM peptidomimetic, mean ± SEM, n = 3): 0.63 ± 0.06
- IC50 ([4]; in presence of an ISO concentration corresponding to EC75, 10C up to 200 μM, read-out: IC50 for blocking ISO-induced cAMP formation (estimated)): 55 µM
